Test results reported in patent US20190135793A1, “HETEROCYCLIC INHIBITORS OF KDM5 FOR THE TREATMENT OF DISEASE” (Board of Regents, The University of Texas System, priority 2017, published 2019).
pIC50: −log10 of the molar value. Read-outs that look alike come from different tables or passages of the source.

Assays:
KDM4C = biological target: T1, KDM4C (Homo sapiens, UniProt Q9H3R0); assay: KDM4C AlphaScreen assay; type: biochemical
T1 construct: Full length of KDM5B and KDM4C protein were purchased from Active Motif; purchased Active Motif 31858
T1 sequence (Q9H3R0 1-1056): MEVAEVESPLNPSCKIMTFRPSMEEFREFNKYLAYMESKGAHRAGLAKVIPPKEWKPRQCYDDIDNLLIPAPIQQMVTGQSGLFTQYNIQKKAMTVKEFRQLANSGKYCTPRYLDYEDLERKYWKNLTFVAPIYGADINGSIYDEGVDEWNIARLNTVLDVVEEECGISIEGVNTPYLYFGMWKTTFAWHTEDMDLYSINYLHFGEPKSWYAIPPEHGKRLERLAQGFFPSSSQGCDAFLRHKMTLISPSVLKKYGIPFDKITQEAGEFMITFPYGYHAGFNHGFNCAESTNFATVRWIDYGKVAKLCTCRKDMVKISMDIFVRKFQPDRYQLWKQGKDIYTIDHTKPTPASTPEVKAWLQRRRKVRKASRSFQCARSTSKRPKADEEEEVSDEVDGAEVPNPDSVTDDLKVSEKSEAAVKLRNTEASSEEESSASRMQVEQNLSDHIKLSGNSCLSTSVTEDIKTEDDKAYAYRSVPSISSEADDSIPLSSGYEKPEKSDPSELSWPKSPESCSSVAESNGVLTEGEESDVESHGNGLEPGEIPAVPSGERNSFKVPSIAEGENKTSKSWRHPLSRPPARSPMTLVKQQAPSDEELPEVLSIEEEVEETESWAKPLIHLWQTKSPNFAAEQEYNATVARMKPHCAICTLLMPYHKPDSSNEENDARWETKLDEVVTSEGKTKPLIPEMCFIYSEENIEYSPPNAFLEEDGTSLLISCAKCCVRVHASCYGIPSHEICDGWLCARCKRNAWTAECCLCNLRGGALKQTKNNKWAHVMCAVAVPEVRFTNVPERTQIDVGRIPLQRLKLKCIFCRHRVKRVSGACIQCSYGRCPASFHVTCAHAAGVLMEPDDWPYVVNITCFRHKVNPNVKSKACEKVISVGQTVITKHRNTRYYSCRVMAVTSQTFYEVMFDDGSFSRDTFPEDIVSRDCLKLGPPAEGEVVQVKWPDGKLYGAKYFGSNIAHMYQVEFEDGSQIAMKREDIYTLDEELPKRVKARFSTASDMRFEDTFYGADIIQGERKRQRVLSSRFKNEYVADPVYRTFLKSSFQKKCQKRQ
Summary of the method: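 Full-length KDM4C (0.2 nM final) was preincubated 15 min at RT with compound in HEPES pH 7.4 with Tween-20, BSA and TCEP. The reaction ran 30 min at RT after adding biotinylated peptide (3 nM final) in buffer with Fe(II), α-ketoglutarate and ascorbate. EDTA-containing AlphaScreen beads stopped it; IC50 was curve-fitted.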

KDM5B = biological target: T2, KDM5B (Homo sapiens, UniProt Q9UGL1); assay: biochemical
T2 construct: Full length of KDM5B and KDM4C protein were purchased from Active Motif; purchased Active Motif 31832
Summary of the method: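 KDM5B (0.5 nM final) was preincubated with compound for 15 min at room temperature, then reacted with biotinylated peptide (3 nM final) for 25 min at room temperature.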

[1] = AlphaScreen, full length KDM4C 0.2 nM, biotinylated H3K9Me3 peptide 3 nM, 30 minutes at room temperature
[2] = AlphaScreen, full length KDM5B 0.5 nM, biotinylated H3K4Me3 peptide 3 nM, 25 minutes at room temperature, read-out: KDM5B (IC50)

T2 sequence (Q9UGL1 whole entry): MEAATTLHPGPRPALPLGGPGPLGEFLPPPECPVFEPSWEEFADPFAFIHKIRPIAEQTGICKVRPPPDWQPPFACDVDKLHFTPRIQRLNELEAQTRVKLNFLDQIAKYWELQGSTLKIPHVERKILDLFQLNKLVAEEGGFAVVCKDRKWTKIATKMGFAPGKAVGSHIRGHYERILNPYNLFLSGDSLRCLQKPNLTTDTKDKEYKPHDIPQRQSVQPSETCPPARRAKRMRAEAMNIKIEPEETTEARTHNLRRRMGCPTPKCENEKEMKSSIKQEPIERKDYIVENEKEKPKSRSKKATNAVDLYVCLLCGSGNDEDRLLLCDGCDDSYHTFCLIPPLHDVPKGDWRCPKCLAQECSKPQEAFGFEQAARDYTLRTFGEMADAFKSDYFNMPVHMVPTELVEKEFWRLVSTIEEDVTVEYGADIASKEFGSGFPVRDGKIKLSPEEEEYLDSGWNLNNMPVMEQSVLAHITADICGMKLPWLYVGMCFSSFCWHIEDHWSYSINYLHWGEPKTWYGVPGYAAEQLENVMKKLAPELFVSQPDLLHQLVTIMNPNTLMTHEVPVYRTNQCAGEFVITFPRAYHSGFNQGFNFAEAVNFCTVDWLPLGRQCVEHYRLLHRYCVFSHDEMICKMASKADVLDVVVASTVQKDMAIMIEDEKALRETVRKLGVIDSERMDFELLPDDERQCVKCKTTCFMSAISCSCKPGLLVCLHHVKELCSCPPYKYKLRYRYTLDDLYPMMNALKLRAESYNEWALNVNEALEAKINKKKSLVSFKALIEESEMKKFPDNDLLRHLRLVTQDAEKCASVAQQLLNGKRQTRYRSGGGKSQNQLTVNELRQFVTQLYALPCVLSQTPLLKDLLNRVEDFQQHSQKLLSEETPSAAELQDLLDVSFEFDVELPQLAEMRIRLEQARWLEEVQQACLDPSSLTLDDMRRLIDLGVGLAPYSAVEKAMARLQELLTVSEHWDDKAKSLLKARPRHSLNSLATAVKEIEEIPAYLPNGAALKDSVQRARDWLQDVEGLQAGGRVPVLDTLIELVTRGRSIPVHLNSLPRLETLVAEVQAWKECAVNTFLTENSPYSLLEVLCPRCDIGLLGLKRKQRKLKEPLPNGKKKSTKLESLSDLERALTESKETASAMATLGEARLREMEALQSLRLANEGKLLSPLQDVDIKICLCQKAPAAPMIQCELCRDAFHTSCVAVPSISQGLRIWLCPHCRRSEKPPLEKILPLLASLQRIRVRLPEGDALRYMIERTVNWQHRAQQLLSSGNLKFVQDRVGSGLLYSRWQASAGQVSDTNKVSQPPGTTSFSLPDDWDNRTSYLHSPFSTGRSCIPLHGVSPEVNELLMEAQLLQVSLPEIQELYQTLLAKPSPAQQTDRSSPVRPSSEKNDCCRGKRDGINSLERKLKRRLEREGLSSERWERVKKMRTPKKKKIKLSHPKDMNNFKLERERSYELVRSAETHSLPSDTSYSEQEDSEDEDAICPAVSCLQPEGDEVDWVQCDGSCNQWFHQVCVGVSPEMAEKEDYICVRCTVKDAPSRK

Row | Structure (SMILES) | pIC50 (KDM4C; [1]) | pIC50 (KDM5B) | pIC50 (KDM5B; [2]) | pIC50 (KDM4C)
1 | CC(C)c1c(O)nc(-n2ccnc2)nc1-c1cnn(CC(=O)NCCN(C)C)c1 [Example 91, N-[2-(Dimethylamino)ethyl]-2-{4-[6-hydroxy-2-(1H-imidazol-1-yl)-5-(propan-2-yl)pyrimidin-4-yl]-1H-pyrazol-1-yl}acetamide] | 6.20 | 8.30 | – | –
2 | CC(C)c1c(O)nc(-n2ccnc2)nc1-c1cnn(CCO)c1 [Example 80, 6-[1-(2-Hydroxyethyl)-1H-pyrazol-4-yl]-2-(1H-imidazol-1-yl)-5-(propan-2-yl)-pyrimidin-4-ol] | 5.46 | 7.29 | – | –
3 | CC(C)c1c(O)nc(-c2cncs2)nc1OCc1cncnc1 [Example 143, 5-(Propan-2-yl)-6-(pyrimidin-5-ylmethoxy)-2-(1,3-thiazol-5-yl)pyrimidin-4-ol] | 5.53 | 6.86 | – | –
4 | CC(C)c1c(O)nc(-n2ccnc2)nc1-c1ccc(CN)cc1 [Example 42, 6-[4-(Aminomethyl)phenyl]-2-(1H-imidazol-1-yl)-5-(propan-2-yl)pyrimidin-4-ol] | 6.26 | 8.40 | – | –
5 | Cc1nc(-c2ccncc2)nc(O)c1C(C)C [Example 149, 6-Methyl-5-(propan-2-yl)-2-(pyridin-4-yl)pyrimidin-4-ol] | 4.30 | 5.48 | – | –
6 | CC(C)c1c(O)nc(-n2ccnc2)nc1-c1cnn(CCC#N)c1 [Example 44, 3-{4-[6-Hydroxy-2-(1H-imidazol-1-yl)-5-(propan-2-yl)pyrimidin-4-yl]-1H-pyrazol-1-yl}propanenitrile] | 6.09 | 8.00 | – | –
7 | CC(C)c1c(O)nc(-n2ccnc2)nc1-c1ccc(C(=O)NCC(=O)O)cc1 [Example 85, 2-({4-[6-Hydroxy-2-(1H-imidazol-1-yl)-5-(propan-2-yl)pyrimidin-4-yl]phenyl}-formamido)acetic acid] | 5.01 | 6.62 | – | –
8 | CC(C)c1c(O)nc(-n2ccnc2)nc1OC1CCOC1 (centres unmarked) [Example 135, 2-(1H-Imidazol-1-yl)-6-(oxolan-3-yloxy)-5-(propan-2-yl)pyrimidin-4-ol] | 5.69 | 7.33 | – | –
9 | CC(C)c1c(O)nc(-n2ccnc2)nc1-c1cnn(C(C)(C)C)c1 [Example 75, 6-(1-tert-Butyl-1H-pyrazol-4-yl)-2-(1H-imidazol-1-yl)-5-(propan-2-yl)pyrimidin-4-ol] | 5.91 | – | 7.57 | –
10 | CC(C)c1c(O)nc(-n2ccnc2)nc1OCCC1CCOCC1 [Example 131, 2-(1H-Imidazol-1-yl)-6-[2-(oxan-4-yl)ethoxy]-5-(propan-2-yl)pyrimidin-4-ol] | 5.68 | 7.57 | – | –
11 | CC(C)c1c(O)nc(-n2ccnc2)nc1OCC(=O)NS(C)(=O)=O [Example 17, 2-{[6-hydroxy-2-(1H-imidazol-1-yl)-5-(propan-2-yl)pyrimidin-4-yl]oxy}-N-methanesulfonylacetamide] | 5.02 | 6.83 | – | –
12 | CC(C)c1c(O)nc(-n2ccnc2)nc1OCCC1CCN(C(=O)CCO)CC1 [Example 14, 3-hydroxy-1-[4-(2-{[6-hydroxy-2-(1H-imidazol-1-yl)-5-(propan-2-yl)pyrimidin-4-yl]oxy}-ethyl)piperidin-1-yl]propan-1-one] | 5.70 | 7.49 | – | –
13 | CC(C)c1c(O)nc(-n2ccnc2)nc1-c1cnn(CC(=O)N2CCCC(N)C2)c1 (centres unmarked) [Example 98, 1-(3-Aminopiperidin-1-yl)-2-{4-[6-hydroxy-2-(1H-imidazol-1-yl)-5-(propan-2-yl)pyrimidin-4-yl]-1H-pyrazol-1-yl}ethan-1-one] | 6.30 | 8.10 | – | –
14 | Cc1n[nH]cc1-c1nc(-n2ccnc2)nc(O)c1C(C)C [Example 60, 2-(1H-Imidazol-1-yl)-6-(5-methyl-1H-pyrazol-4-yl)-5-(propan-2-yl)pyrimidin-4-ol] | 5.78 | – | 7.77 | –
15 | CC(C)c1c(O)nc(-n2ccnc2)nc1-c1cnn(CC2CC2)c1 [Example 52, 6-[1-(Cyclopropylmethyl)-1H-pyrazol-4-yl]-2-(1H-imidazol-1-yl)-5-(propan-2-yl)pyrimidin-4-ol] | 6.08 | 7.85 | – | –
16 | CC(C)c1c(O)nc(-n2ccnc2)nc1-n1ccnc1 [Example 28b, 2,6-di(1H-imidazol-1-yl)-5-isopropylpyrimidin-4-ol] | 5.78 | 7.72 | – | –
17 | CC(C)c1c(O)nc(-n2ccnc2)nc1-c1cnn(CC(=O)O)c1 [Example 5, 2-(4-(6-Hydroxy-2-(1H-imidazol-1-yl)-5-isopropylpyrimidin-4-yl)-1H-pyrazol-1-yl)acetic acid] | 5.13 | 6.93 | – | –
18 | CCCn1cc(-c2nc(-n3ccnc3)nc(O)c2C(C)C)cn1 [Example 56, 2-(1H-Imidazol-1-yl)-5-(propan-2-yl)-6-(1-propyl-1H-pyrazol-4-yl)pyrimidin-4-ol] | 6.00 | 7.82 | – | –
19 | CC(C)c1c(O)nc(-n2ccnc2)nc1OCC(=O)N1CCN(C)CC1 [Example 16, 2-{[6-hydroxy-2-(1H-imidazol-1-yl)-5-(propan-2-yl)pyrimidin-4-yl]oxy}-1-(4-methylpiperazin-1-yl)ethan-1-one] | – | 7.59 | – | 5.24
20 | CC(C)c1c(O)nc(-n2ccnc2-c2ncccn2)nc1Cl [Example 88, 6-Chloro-5-(propan-2-yl)-2-[2-(pyrimidin-2-yl)-1H-imidazol-1-yl]pyrimidin-4-ol] | 5.08 | – | 6.25 | –
21 | CC(C)c1c(O)nc(-n2ccnc2)nc1-c1cnn(Cc2ccncc2)c1 [Example 53, 2-(1H-Imidazol-1-yl)-5-(propan-2-yl)-6-[1-(pyridin-4-ylmethyl)-1H-pyrazol-4-yl]-pyrimidin-4-ol] | 5.76 | 7.82 | – | –
22 | CC(C)c1c(O)nc(-n2ccnc2)nc1-c1cnn(C(C)C)c1 [Example 1, 2-(1H-imidazol-1-yl)-5-isopropyl-6-(1-isopropyl-1H-pyrazol-4-yl)pyrimidin-4-ol] | 5.98 | 7.92 | – | –
23 | CC(C)c1c(O)nc(-n2ccnc2)nc1-c1cnn(CC(=O)N2CCC(C#N)CC2)c1 [Example 110, 1-(2-{4-[6-Hydroxy-2-(1H-imidazol-1-yl)-5-(propan-2-yl)pyrimidin-4-yl]-1H-pyrazol-1-yl}acetyl)-piperidine-4-carbonitrile] | 5.90 | 7.68 | – | –
24 | Cc1nc(-n2ccnc2CO)nc(O)c1C(C)C [Example 25, 2-[2-(hydroxymethyl)imidazol-1-yl]-5-isopropyl-6-methyl-pyrimidin-4-ol] | 6.21 | 7.32 | – | –
25 | CC(C)c1c(O)nc(-n2ccnc2)nc1-c1cnn(CC(=O)N2CCC(C#N)C2)c1 (centres unmarked) [Example 101, 1-(2-{4-[6-Hydroxy-2-(1H-imidazol-1-yl)-5-(propan-2-yl)pyrimidin-4-yl]-1H-pyrazol-1-yl}acetyl)-pyrrolidine-3-carbonitrile] | 6.06 | 7.92 | – | –
26 | CC(C)c1c(O)nc(-n2ccnc2)nc1-c1cnn(CC(=O)NCCN(C)CC(F)(F)F)c1 [Example 116, 2-{4-[6-Hydroxy-2-(1H-imidazol-1-yl)-5-(propan-2-yl)pyrimidin-4-yl]-1H-pyrazol-1-yl}-N-{2-[methyl-(2,2,2-trifluoroethyl)amino]-ethyl}acetamide] | 5.65 | 7.52 | – | –
27 | CC(C)c1c(O)nc(-n2ccnc2)nc1-c1cnn(CC(=O)N2CCN(C)CC2)c1 [Example 99, 2-{4-[6-Hydroxy-2-(1H-imidazol-1-yl)-5-(propan-2-yl)pyrimidin-4-yl]-1H-pyrazol-1-yl}-1-(4-methyl-piperazin-1-yl)ethan-1-one] | 6.34 | – | 8.00 | –
28 | CC(C)c1c(O)nc(-n2ccnc2)nc1-c1ccc(S(=O)(=O)N(C)C)cc1 [Example 61, 4-[6-Hydroxy-2-(1H-imidazol-1-yl)-5-(propan-2-yl)pyrimidin-4-yl]-N,N-dimethylbenzene-1-sulfonamide] | 5.83 | – | 7.77 | –
